Data on 17 molecules can be found in ChEMBL document CHEMBL1149398, “Pyrrolizidine esters and amides as 5-HT4 receptor agonists and antagonists” (J Med Chem, 2006).

Series [1] deals with T1, 5-hydroxytryptamine receptor 4 (Rattus norvegicus, UniProt Q62758). As to the kind of experiment: Antagonism at 5HT4 receptor in rat tunica muscularis mucosa. Format: functional, tissue-based. As to conditions: read-out: pA2 (converted).
For series [2], the target named is T2, Serotonin 3 receptor (5HT3) (Mus musculus) (UniProt Q9JHJ5+P23979). Kind of series: Antagonism at 5HT3 receptor in mice by von Bezold-Jarisch reflex inhibition at 1000 mg/kg, ip. The format is functional, organism-based. Details: dose 1000 mg/kg.
T2 sequence (P23979 whole entry, looked up): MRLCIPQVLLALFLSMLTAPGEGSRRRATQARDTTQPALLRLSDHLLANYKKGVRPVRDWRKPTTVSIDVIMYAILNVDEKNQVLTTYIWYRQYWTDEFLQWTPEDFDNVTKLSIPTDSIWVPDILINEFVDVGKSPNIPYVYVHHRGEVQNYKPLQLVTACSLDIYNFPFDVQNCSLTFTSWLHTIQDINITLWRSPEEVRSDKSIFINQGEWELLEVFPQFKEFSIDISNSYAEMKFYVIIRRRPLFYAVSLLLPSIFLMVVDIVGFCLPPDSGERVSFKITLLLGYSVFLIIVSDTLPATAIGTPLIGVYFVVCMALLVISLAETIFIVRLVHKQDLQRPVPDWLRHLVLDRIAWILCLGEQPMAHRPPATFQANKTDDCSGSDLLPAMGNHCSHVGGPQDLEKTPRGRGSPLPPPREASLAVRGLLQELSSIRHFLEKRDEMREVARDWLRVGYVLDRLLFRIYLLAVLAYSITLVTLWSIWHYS
T2 sequence (Q9JHJ5 whole entry, looked up): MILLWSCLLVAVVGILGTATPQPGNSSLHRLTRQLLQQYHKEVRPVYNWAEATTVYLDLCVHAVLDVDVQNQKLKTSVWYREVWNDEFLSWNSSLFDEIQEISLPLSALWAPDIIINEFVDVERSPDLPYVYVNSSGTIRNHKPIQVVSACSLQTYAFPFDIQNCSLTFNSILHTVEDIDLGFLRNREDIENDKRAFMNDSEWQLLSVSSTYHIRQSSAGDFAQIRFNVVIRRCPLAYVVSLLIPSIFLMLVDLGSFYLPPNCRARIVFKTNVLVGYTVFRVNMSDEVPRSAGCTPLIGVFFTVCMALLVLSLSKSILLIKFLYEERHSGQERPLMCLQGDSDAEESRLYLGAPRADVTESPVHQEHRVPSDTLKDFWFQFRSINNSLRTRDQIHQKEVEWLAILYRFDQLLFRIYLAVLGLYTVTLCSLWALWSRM
The target in series [3] is T1, 5-hydroxytryptamine receptor 4. As to the kind of experiment: Agonism at 5HT4 receptor in rat tunica muscularis mucosa. The format is functional.
Series [4] addresses T3, 5-hydroxytryptamine receptor 4 (Cavia porcellus, UniProt O70528). As to the kind of experiment: Displacement of [3H]GR-113808 from 5HT4 receptor in guinea pig striatum. Background: In a radioligand displacement assay an active substance lowers the binding of a labelled ligand.
Series [5] has as its system Canis familiaris. As to the kind of experiment: Effect on solid gastric emptying in iv dosed dog. Format: functional.
The subject of series [6] is Canis familiaris. As to the kind of experiment: Contractile response of the antrum in iv dosed fasted dog. The format is functional. Particulars: Canis lupus familiaris.
Series [7] addresses 5-hydroxytryptamine receptor 4 (Rattus norvegicus) (UniProt Q62758). Kind of series: Antagonism at 5HT4 receptor in rat tunica muscularis mucosa upto 100-1000 nM. Format: functional, tissue-based.
The target of series [8] is T2, Serotonin 3 receptor (5HT3) (Mus musculus). As to the kind of experiment: Antagonism at 5HT3 receptor in mice by von Bezold-Jarisch reflex inhibition at 10 mg/kg, ip. The format is functional, organism-based. Details: dose 10 mg/kg.
For series [9], the target named is T4, Serotonin 3 (5-HT3) receptor (Rattus norvegicus, UniProt P35563+Q9JJ16).
T4 sequence (P35563 whole entry): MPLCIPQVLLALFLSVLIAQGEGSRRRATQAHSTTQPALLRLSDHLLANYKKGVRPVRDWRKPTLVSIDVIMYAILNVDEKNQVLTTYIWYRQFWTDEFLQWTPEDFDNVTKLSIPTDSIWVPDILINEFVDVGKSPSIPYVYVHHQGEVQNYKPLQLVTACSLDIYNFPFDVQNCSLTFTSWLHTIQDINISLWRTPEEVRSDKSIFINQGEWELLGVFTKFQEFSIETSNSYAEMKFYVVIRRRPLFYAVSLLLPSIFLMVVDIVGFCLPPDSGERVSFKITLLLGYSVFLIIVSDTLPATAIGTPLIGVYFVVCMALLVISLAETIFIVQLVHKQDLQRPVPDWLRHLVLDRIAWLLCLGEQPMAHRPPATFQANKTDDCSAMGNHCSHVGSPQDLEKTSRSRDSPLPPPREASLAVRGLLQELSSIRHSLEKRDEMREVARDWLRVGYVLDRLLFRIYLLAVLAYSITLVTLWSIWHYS
T4 sequence (Q9JJ16 whole entry): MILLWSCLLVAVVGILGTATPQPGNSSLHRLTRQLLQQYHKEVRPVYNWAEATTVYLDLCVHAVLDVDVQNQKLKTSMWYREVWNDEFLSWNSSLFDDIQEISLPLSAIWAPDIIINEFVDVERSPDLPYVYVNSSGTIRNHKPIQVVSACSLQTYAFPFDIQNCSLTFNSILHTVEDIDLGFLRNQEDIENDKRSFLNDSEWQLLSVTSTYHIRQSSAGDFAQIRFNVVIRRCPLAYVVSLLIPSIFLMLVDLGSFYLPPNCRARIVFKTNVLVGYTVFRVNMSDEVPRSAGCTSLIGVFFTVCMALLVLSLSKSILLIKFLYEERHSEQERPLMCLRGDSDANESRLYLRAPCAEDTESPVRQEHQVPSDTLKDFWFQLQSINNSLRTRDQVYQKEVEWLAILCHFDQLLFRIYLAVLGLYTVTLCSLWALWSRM
As to the kind of experiment: Displacement of [3H]GR65630 from 5HT3 receptor in brain cortex from Wistar rat. The format is tissue-based.

The next series has as its target D(2) dopamine receptor (Homo sapiens, UniProt P14416). As to the kind of experiment: Binding affinity to dopamine receptor D2.
The target in series [10] is T2, Serotonin 3 receptor (5HT3) (Mus musculus). As to the kind of experiment: Antagonism at 5HT3 receptor in mice by von Bezold-Jarisch reflex inhibition at 3 mg/kg, ip. Details: dose 3 mg/kg. The format is functional, organism-based.
Series [11] concerns the target 5-hydroxytryptamine receptor 4 (Rattus norvegicus) (UniProt Q62758). Kind of series: Antagonism at 5HT4 receptor in rat tunica muscularis mucosa at 0.1 uM. The format is functional, tissue-based.
For series [12], the target named is Beta-1 adrenergic receptor (Homo sapiens, UniProt P08588). As to the kind of experiment: Binding affinity to adrenergic beta-1 receptor.
Chain of Beta-1 adrenergic receptor (P08588 whole entry): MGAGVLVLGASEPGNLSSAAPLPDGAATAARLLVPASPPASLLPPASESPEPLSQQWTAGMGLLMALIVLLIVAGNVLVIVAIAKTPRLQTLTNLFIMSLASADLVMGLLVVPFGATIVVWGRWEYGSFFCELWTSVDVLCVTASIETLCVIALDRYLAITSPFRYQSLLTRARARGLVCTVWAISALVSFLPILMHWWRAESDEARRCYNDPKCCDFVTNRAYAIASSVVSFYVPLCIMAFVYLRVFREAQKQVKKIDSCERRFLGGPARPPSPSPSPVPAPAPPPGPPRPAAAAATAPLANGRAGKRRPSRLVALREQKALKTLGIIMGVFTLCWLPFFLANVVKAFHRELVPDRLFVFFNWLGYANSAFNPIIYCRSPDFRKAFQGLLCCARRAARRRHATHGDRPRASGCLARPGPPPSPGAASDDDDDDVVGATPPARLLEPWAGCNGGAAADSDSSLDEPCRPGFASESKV
Series [13] deals with Beta-2 adrenergic receptor (Homo sapiens, UniProt P07550). Kind of series: Binding affinity to adrenergic beta-2 receptor.
Chain of Beta-2 adrenergic receptor (P07550 whole entry): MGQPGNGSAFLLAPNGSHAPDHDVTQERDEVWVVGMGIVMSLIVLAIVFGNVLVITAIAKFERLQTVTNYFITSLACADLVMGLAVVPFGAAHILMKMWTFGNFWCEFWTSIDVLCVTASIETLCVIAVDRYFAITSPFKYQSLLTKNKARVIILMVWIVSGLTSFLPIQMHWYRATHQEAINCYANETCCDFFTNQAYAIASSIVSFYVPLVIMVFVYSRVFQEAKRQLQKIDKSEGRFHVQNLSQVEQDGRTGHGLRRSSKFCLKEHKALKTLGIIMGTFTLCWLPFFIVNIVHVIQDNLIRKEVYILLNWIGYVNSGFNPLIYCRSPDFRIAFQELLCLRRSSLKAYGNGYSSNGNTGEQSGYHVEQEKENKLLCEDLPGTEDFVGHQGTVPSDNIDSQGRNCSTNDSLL
Another series concerns the target D(1A) dopamine receptor (Homo sapiens, UniProt P21728). As to the kind of experiment: Binding affinity to dopamine receptor D1.
Series [14] can be described thus: Binding affinity to 5HT1 receptor.
The target of series [15] is T2, Serotonin 3 receptor (5HT3) (Mus musculus). As to the kind of experiment: Antagonism at 5HT3 receptor in mice by von Bezold-Jarisch reflex inhibition at 1 mg/kg, ip. Details: dose 1 mg/kg. Format: functional, organism-based.
In series [16] the test system is Salmonella typhi. Kind of series: Mutagenic activity in a GLP study using Salmonella Typhimurium TA1535 in presence of S9 fraction at 10-5000 ug/plate. Format: toxicity, organism-based. As to conditions: salmonella enterica subsp. enterica […].
For series [17], the system named is Salmonella typhi. Kind of series: Mutagenic activity in a GLP study using Salmonella Typhimurium TA98 in presence of S9 fraction at 10-5000 ug/plate. The format is toxicity, organism-based. As to conditions: salmonella enterica subsp. enterica […].
The target in series [18] is T3, 5-hydroxytryptamine receptor 4. As to the kind of experiment: Inhibition of [3H]GR-113808 binding to 5HT4 receptor in guinea pig striatum at 500 nM. The format is tissue-based.
Series [19] has as its system Salmonella typhi. Kind of series: Mutagenic activity in a GLP study using Salmonella Typhimurium TA1538 in presence of S9 fraction at 10-5000 ug/plate. Format: toxicity, organism-based. As to conditions: salmonella enterica subsp. enterica […].
The test system of series [20] is Salmonella typhi. As to the kind of experiment: Mutagenic activity in a GLP study using Salmonella Typhimurium TA97 in presence of S9 fraction at 10-5000 ug/plate. Particulars: salmonella enterica subsp. enterica […]. The format is toxicity, organism-based.
In series [21] the test system is Salmonella typhi. Kind of series: Mutagenic activity in a GLP study using Salmonella Typhimurium TA100 in presence of S9 fraction at 10-5000 ug/plate. The format is toxicity, organism-based. Particulars: salmonella enterica subsp. enterica […].
Series [22] deals with T2, Serotonin 3 receptor (5HT3) (Mus musculus). As to the kind of experiment: Antagonism at 5HT3 receptor in mice by von Bezold-Jarisch reflex inhibition at 0.3 mg/kg, ip. Format: functional, organism-based. Details: dose 0.3 mg/kg.
The mark [23] stands for this setting: Canis lupus familiaris, Stomach.

The source made the active and inactive calls. No cut-off for these calls is given here. Some results are limits rather than exact numbers.

In general, inhibition refers to the drop in the measured response relative to a control, in per cent. The low end stands for a response near the control, the high end for a response far below the control. One may read the EC50 as the concentration that produces a half-maximal response. Low readings indicate greater potency, high ones weaker potency. For orientation: Ki means the dissociation constant of the complex between target and ligand, obtained from inhibition or displacement. The low end stands for higher affinity, the high end for lower affinity. As a reminder, the ED50 is the dose at which the effect has come halfway, by size or by number of responders. A word on the IC50: it is the point on the concentration scale where inhibition reaches its midpoint. High values mean weaker potency, low ones greater potency.

Chain of D(2) dopamine receptor (P14416 whole entry): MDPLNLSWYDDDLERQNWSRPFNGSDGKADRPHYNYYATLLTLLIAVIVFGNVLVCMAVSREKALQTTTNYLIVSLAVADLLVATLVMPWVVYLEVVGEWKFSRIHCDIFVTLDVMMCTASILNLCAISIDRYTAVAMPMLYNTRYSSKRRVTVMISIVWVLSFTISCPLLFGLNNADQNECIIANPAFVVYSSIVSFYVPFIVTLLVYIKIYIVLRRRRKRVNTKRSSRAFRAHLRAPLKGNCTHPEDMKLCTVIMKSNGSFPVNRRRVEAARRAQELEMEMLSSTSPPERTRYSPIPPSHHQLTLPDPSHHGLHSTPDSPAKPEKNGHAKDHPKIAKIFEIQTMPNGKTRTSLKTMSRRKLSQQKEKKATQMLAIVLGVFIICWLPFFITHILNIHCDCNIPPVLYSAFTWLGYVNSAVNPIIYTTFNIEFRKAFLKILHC
T3 sequence (O70528 whole entry): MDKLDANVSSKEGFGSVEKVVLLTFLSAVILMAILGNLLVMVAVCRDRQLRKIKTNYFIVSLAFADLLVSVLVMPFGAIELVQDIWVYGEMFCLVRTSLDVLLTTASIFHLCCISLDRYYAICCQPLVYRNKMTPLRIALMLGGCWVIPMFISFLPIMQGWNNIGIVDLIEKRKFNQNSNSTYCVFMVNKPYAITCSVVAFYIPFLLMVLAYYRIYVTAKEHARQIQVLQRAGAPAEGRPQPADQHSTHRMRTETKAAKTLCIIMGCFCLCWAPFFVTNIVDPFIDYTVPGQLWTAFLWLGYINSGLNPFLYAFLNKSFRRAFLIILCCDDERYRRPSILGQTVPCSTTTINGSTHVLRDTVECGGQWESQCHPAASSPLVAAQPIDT
T1 sequence (Q62758 whole entry): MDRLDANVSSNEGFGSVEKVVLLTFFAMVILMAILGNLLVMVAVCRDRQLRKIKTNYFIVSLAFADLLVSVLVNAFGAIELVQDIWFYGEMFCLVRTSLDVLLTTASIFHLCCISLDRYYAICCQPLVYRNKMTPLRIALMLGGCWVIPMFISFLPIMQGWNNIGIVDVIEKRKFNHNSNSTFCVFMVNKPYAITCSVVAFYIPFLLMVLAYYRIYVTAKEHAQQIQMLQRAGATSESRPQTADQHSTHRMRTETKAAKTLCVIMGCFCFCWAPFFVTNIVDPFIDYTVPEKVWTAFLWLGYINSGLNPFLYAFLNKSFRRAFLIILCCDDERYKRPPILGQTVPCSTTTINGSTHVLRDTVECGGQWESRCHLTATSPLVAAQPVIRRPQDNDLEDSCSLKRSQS
Chain of 5-hydroxytryptamine receptor 4 (Rattus norvegicus) (Q62758 whole entry): as above
Chain of D(1A) dopamine receptor (P21728 whole entry): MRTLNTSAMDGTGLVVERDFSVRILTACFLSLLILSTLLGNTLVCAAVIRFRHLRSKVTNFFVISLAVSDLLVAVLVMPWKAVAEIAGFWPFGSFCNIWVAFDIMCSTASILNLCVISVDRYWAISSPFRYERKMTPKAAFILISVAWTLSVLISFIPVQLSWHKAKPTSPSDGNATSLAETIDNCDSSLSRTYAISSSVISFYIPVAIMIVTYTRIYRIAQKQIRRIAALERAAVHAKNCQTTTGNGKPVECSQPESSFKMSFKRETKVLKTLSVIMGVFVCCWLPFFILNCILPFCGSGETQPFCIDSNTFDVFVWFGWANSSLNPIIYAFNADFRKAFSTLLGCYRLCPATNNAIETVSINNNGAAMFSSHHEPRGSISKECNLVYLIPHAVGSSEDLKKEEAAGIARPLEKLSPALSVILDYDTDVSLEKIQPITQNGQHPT

Take `COc1ccc2[nH]cc(C(=O)OC[C@@H]3CCN4CCC[C@@H]34)c2c1`: the Kb in series [1] was 70.8 nM.
Still for that read-out and setting: to `O=C(OC[C@@H]1CCN2CCC[C@@H]12)c1cc(Cl)cn2ccnc12` belongs 178 nM.
`COc1cc(N)c(Cl)cc1C(=O)NC[C@@H]1CC[N@@+]2(C)CCC[C@@H]12` yielded an inhibition in series [2] of 16%. The molecule further came in with an EC50 in series [3] of 129 nM. In series [4], this molecule returned a Ki of 0.35 nM.
For the molecule `COc1cc(N)c(Cl)cc1C(=O)N[C@H]1CCN2CCC[C@@H]1C2`, the ED50 result in the series with Canis familiaris [5] (Canis lupus familiaris; Stomach) was “Active”. Further, in series [3], the EC50 is 98 nM. The same molecule showed a median effective dose (ED50) with Canis familiaris [6] of 0.015 mg/kg.
Regarding `CC1(C)C(=O)N(C(=O)NC[C@@H]2CCN3CCC[C@@H]23)c2ccccc21`, the Kb in [1] was 100 nM.
As for `Cn1cc(C(=O)NC[C@@H]2CCN3CCC[C@@H]23)c2ccccc21`, in series [7], the pA2 entry was “inactive”.
Take `O=C(NC[C@@H]1CCN2CCC[C@@H]12)c1cccn2ccnc12`: the Kb in series [1] is 178 nM.
Regarding `COc1cc(N)c(Cl)cc1C(=O)OC[C@@H]1CCN2CCC[C@@H]12`, the inhibition in series [8] amounted to 0%. Further, the Ki in [9] is 51 nM; in [4] it was 0.183 nM. The IC50 on D(2) dopamine receptor is above 10000 nM. Moreover, the half-maximal effective concentration (EC50) in series [3] amounted to 1.5 nM.
Take `O=C(OC[C@@H]1CCN2CCC[C@@H]12)c1c[nH]c2ccc(F)cc12`: the Ki is 10 nM in series [9] and 0.7 nM in series [4]. For the same molecule, the Kb in series [1] was 3.16 nM.
With `CCc1nc(C(=O)NC[C@@H]2CCN3CCC[C@@H]23)c2ccccn12` (relative stereo), the Kb in series [1] is 275 nM.
For `CCOc1cc(N)c(Cl)cc1C(=O)NC[C@@H]1CCN2CCC[C@@H]12`, the inhibition in [8] turned out to be 89%; in series [10], 48%. Besides, the inhibitory constant (Ki) in series [9] is 25 nM. At D(2) dopamine receptor, this molecule returned a half-inhibitory concentration (IC50) of 5300 nM. For the same molecule, in series [3], a half-maximal effect (EC50) was put at 195 nM.
In the case of `CCc1cc(C(=O)NC[C@@H]2CCN3CCC[C@@H]23)c2ccccn12` (relative stereo), the pA2 result in series [7] was “inactive”.
For `Cn1c(C(=O)OC[C@@H]2CCN3CCC[C@@H]23)cc2ccccc21`, in [11], the pA2 result was “inactive”.
Turning to `COc1cc(N)c(Cl)cc1C(=O)NC1CCN(CCCOc2ccc(F)cc2)CC1OC` (stereo not drawn) [CISAPRIDE], the figures for the ED50 in the series on Canis familiaris [5] (setting [23]) and with Canis familiaris [6] were 0.03 mg/kg and 0.056 mg/kg, respectively. The IC50 is above 10000 nM in series [12], above 10000 nM in series [13], 1700 nM at D(1A) dopamine receptor and above 1000 nM in series [14].
`COc1cc(N)c(Cl)cc1C(=O)NC[C@H]1CCN2CCC[C@H]12`: the inhibition worked out at 20% in series [15], 87% in [8], 79% in series [10] and 18% in series [18]. For the same molecule, the Activity entry in the series with Salmonella typhi [16], in the series with Salmonella typhi [17], in the series on Salmonella typhi [19], in the series with Salmonella typhi [20] and in the series with Salmonella typhi [21] was “Not Active” each time. The median effective dose (ED50) in the series on Canis familiaris [5] (setting [23]) was determined as 1 mg/kg; in the series with Canis familiaris [6], 0.45 mg/kg. On D(2) dopamine receptor, the IC50 amounted to 3900 nM. Also, in series [3], a half-maximal response (EC50) required 323 nM.
Take `CC(C)n1c(=O)n(C(=O)NC[C@@H]2CCN3CCC[C@@H]23)c2ccccc21` (relative stereo): the inhibition came out at 62% in series [15], 87% in [8] and 0% in series [22]. Moreover, the inhibition constant (Ki) in series [9] turned out to be 20.2 nM; in series [4], 7 nM. This molecule gave an EC50 in series [3] of 374 nM.
In the case of `Cc1cnc2c(C(=O)NC[C@@H]3CCN4CCC[C@@H]34)cc(Cl)cn12`, the Kb in series [1] was 81.3 nM.
